Source: PubChem BioAssay (NCI)
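Step 1: Grow cells in 96-well plates. Step 2: Expose to compound for 48 hours at 5 concentrations. Step 3: Interpolate endpoints linearly; if unreached, use highest concentration. At the GI50, growth is halved. TGI: concentration producing complete growth inhibition.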

Tests used:
Test in all cases: NCI anticancer screen, dose series, 48 h
[1] = test system: HCT-15 colon
[2] = test system: OVCAR-5 ovarian
[3] = test system: SF-268 CNS
[4] = test system: SK-OV-3 ovarian
[5] = test system: LOX IMVI melanoma
[6] = test system: HCT-116 colon
[7] = test system: UACC-62 melanoma
[8] = test system: COLO 205 colon
[9] = test system: CAKI-1 renal
[10] = test system: RXF 393 renal

COc1nc(N)nc2c1ncn2C1OC(CO)C(O)C1O (stereo not drawn)
GI50 [1]: > 5000 µM | TGI [1]: > 5000 µM | GI50 [2]: > 5000 µM | TGI [2]: > 5000 µM | GI50 [3]: > 5000 µM | TGI [3]: > 5000 µM | GI50 [4]: 2430 µM | TGI [4]: > 5000 µM | GI50 [5]: 3540 µM | TGI [5]: > 5000 µM | GI50 [6]: > 5000 µM | TGI [6]: > 5000 µM | GI50 [7]: > 5000 µM | TGI [7]: > 5000 µM | GI50 [8]: 520 µM | TGI [8]: 2250 µM | GI50 [9]: 3120 µM | TGI [9]: > 5000 µM | GI50 [10]: 2320 nM

O=C1OC(O)C(Oc2c(Cl)cccc2Cl)=C1Cl (stereo not drawn)
TGI [1]: 29 µM | TGI [2]: 46 µM | TGI [3]: 31.3 µM | TGI [4]: 43.5 µM | TGI [5]: 34 µM | TGI [6]: 27.9 µM | TGI [7]: 24.7 µM | TGI [8]: 30.2 µM | TGI [9]: 48 µM | TGI [10]: 23.9 µM

CCn1c(-c2cc3ccccc3cc2O)nn(C(=O)c2c(Cl)cccc2Cl)c1=S
GI50 [1]: 16.3 µM | TGI [1]: > 50 µM | GI50 [2]: > 50 µM | TGI [2]: > 50 µM | GI50 [3]: > 50 µM | TGI [3]: > 50 µM | GI50 [4]: 15.4 µM | TGI [4]: 40 µM | GI50 [5]: > 50 µM | TGI [5]: > 50 µM | GI50 [6]: 28.5 µM | TGI [6]: > 50 µM | GI50 [7]: 17.2 µM | TGI [7]: > 50 µM | GI50 [8]: 40.3 µM | TGI [8]: > 50 µM | GI50 [9]: 21.4 µM | TGI [9]: > 50 µM | GI50 [10]: 14500 nM | TGI [10]: > 50 µM

O=C1/C(=C\c2ccccn2)c2ccccc2N1c1c(Cl)cccc1Cl
GI50 [1]: 2.11 µM | TGI [1]: 5.3 µM | GI50 [2]: 2.05 µM | TGI [2]: 4.81 µM | GI50 [3]: 2.96 µM | TGI [3]: 9.54 µM | GI50 [4]: 3.01 µM | TGI [4]: 10.2 µM | GI50 [5]: 1.68 µM | TGI [5]: 3.21 µM | GI50 [6]: 1.7 µM | TGI [6]: 3.32 µM | GI50 [7]: 1.62 µM | TGI [7]: 3.68 µM | GI50 [8]: 2.04 µM | TGI [8]: 4.81 µM | GI50 [9]: 1.83 µM | GI50 [10]: 1400 nM | TGI [10]: 2.73 µM

COC(=O)C1[C@H](c2cc(OC)c(OC)c(OC)c2)OC(=O)C1(C(=O)OC)C(=O)c1ccc2c(c1)OCO2 (stereo partly drawn)
TGI [1]: > 100 µM | TGI [2]: > 100 µM | TGI [3]: > 100 µM | TGI [4]: > 100 µM | TGI [5]: > 100 µM | TGI [6]: > 100 µM | TGI [7]: > 100 µM | TGI [8]: > 100 µM | TGI [9]: > 100 µM | TGI [10]: > 100 µM

Cc1cc(CC(C)CC(C)(C)C)n(O)c(=O)c1 (stereo not drawn) (tested in a mixture with another compound)
GI50 [1]: 0.459 µM | TGI [1]: > 100 µM | GI50 [2]: 0.689 µM | TGI [2]: > 58 µM | GI50 [3]: 0.409 µM | TGI [3]: 16.1 µM | GI50 [4]: 1.75 µM | TGI [4]: > 55.3 µM | GI50 [5]: 0.312 µM | TGI [5]: 10.9 µM | GI50 [6]: 0.406 µM | TGI [6]: 13.2 µM | GI50 [7]: 0.305 µM | TGI [7]: 1.08 µM | GI50 [8]: 13.4 µM | TGI [8]: 59.6 µM | GI50 [9]: 1.76 µM | TGI [9]: 9.82 µM | GI50 [10]: 372 nM | TGI [10]: 6.53 µM

O=Cc1ccc(-c2ccc(-c3nc4ccccc4o3)cc2)o1
GI50 [1]: 19.7 µM | TGI [1]: 53.4 µM | GI50 [2]: 29 µM | TGI [2]: 95.2 µM | GI50 [3]: 29.6 µM | TGI [3]: > 100 µM | GI50 [4]: 41.9 µM | TGI [4]: > 100 µM | GI50 [5]: 23 µM | TGI [5]: 60.2 µM | GI50 [6]: 27.1 µM | TGI [6]: 80.4 µM | GI50 [7]: 21.7 µM | TGI [7]: 63.3 µM | GI50 [8]: 46.9 µM | TGI [8]: > 100 µM | GI50 [9]: 22.6 µM | TGI [9]: 65.9 µM | GI50 [10]: 22600 nM | TGI [10]: 54.5 µM

O=c1c2cccc3cccc(c4n1CCN=4)c32
TGI [1]: > 100 µM | TGI [2]: > 100 µM | TGI [3]: > 100 µM | TGI [4]: > 100 µM | TGI [5]: 80.5 µM | TGI [6]: > 100 µM | TGI [7]: > 100 µM | TGI [8]: > 100 µM | TGI [9]: > 100 µM | TGI [10]: > 100 µM

Cc1ccc(C)c(C2NC(=O)c3ccccc3N2)c1 (stereo not drawn)
TGI [1]: 50.6 µM | TGI [2]: > 69.7 µM | TGI [3]: > 100 µM | TGI [4]: > 75.1 µM | TGI [5]: > 100 µM | TGI [6]: 19.8 µM | TGI [7]: > 70.3 µM | TGI [8]: 7.06 µM | TGI [9]: 35.3 µM | TGI [10]: 14.3 µM

N#CC1=C(N)NC(N2CCOCC2)=NC12Nc1ccccc1N2
GI50 [1]: 35.2 µM | TGI [1]: > 100 µM | GI50 [2]: 42.7 µM | TGI [2]: > 100 µM | GI50 [3]: 21.6 µM | TGI [3]: 51.1 µM | GI50 [4]: 58.1 µM | TGI [4]: > 100 µM | GI50 [5]: 23.5 µM | TGI [5]: 62.5 µM | GI50 [6]: 16 µM | TGI [6]: > 100 µM | GI50 [7]: 32.2 µM | TGI [7]: 82.1 µM | GI50 [8]: 24.1 µM | TGI [8]: > 100 µM | GI50 [9]: 10.8 µM | TGI [9]: 37.8 µM | GI50 [10]: 14200 nM | TGI [10]: 40.7 µM

C[N+](C)(C)CC(=O)N/N=C(\C(=O)NC1=C(Cl)C(=O)c2ccccc2C1=O)C(C#N)c1csc(-c2ccc([N+](=O)[O-])cc2)n1 (stereo not drawn)
TGI [1]: > 100 µM | TGI [2]: > 100 µM | TGI [3]: > 100 µM | TGI [4]: > 100 µM | TGI [5]: > 100 µM | TGI [6]: > 100 µM | TGI [7]: > 100 µM | TGI [8]: > 100 µM | TGI [9]: > 100 µM | TGI [10]: > 100 µM

O=S1Nc2c(Cl)cc(Cl)c3c(Cl)cc(Cl)c(c23)N1
TGI [1]: > 100 µM | TGI [2]: > 100 µM | TGI [3]: > 100 µM | TGI [4]: > 100 µM | TGI [5]: > 100 µM | TGI [6]: > 100 µM | TGI [7]: 66 µM | TGI [8]: > 100 µM | TGI [9]: 95.2 µM | TGI [10]: 50.9 µM

CN1C(=O)N[C@H]2[C@@H]3NC(=O)c4ccc(Br)n4[C@@H]3C[C@]21O
GI50 [1]: 0.979 µM | TGI [1]: 8.49 µM | GI50 [2]: 1.03 µM | TGI [2]: 6.3 µM | GI50 [3]: 0.115 µM | TGI [3]: 2.63 µM | GI50 [4]: 1.37 µM | TGI [4]: 5.5 µM | GI50 [5]: 0.369 µM | TGI [5]: 3.37 µM | GI50 [6]: 0.112 µM | TGI [6]: 2.39 µM | GI50 [7]: 0.0861 µM | TGI [7]: 1.18 µM | GI50 [8]: 0.0832 µM | TGI [8]: 1.18 µM | GI50 [9]: 2.4 µM | TGI [9]: 13.1 µM | GI50 [10]: 56.5 nM | TGI [10]: 0.486 µM

COc1cc(-c2nc(-c3nc4ccccc4[nH]3)cc3c2[nH]c2ccccc23)cc(OC)c1OC
GI50 [1]: 4.14 µM | TGI [1]: > 100 µM | GI50 [2]: > 100 µM | TGI [2]: > 100 µM | GI50 [3]: 4.81 µM | TGI [3]: > 100 µM | GI50 [4]: > 100 µM | TGI [4]: > 100 µM | GI50 [5]: 4.72 µM | TGI [5]: > 100 µM | GI50 [6]: 3.95 µM | TGI [6]: > 100 µM | GI50 [7]: 3.38 µM | TGI [7]: > 100 µM | GI50 [8]: 4.58 µM | TGI [8]: > 100 µM | GI50 [9]: 7.03 µM | TGI [9]: > 100 µM | GI50 [10]: 3250 nM | TGI [10]: > 100 µM
